# Experimental data from publication PMC12758328 (Virulence, 2025).
# Tests used:
# SpyGapN = biological target: T1, SpyGapN (Streptococcus pyogenes, UniProt Q99Z67); assay: NADPH formation at […] nm; assay type: biochemical; conditions: for inhibition at 40000 µM: read-out: % inhibition at 40 mM
# T1 sequence (Q99Z67 1-475): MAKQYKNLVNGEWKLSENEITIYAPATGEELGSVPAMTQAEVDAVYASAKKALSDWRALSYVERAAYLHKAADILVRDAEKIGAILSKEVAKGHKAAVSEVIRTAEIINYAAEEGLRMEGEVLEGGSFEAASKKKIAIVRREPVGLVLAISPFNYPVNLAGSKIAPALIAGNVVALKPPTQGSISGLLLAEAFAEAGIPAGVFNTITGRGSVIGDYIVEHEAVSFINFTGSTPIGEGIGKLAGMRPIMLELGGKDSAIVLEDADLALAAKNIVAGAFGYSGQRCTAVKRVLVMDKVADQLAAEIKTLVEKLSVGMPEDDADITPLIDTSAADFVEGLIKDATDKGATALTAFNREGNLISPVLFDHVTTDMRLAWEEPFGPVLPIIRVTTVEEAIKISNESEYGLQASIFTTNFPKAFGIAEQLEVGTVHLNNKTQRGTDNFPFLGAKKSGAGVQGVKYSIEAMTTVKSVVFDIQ
# SpyGapDH = biological target: T2, SpyGapDH (Streptococcus pyogenes, UniProt P0C0G7); assay: NADH formation at […] nm; assay type: biochemical; conditions: 10 mM NAD+, 10 mM phosphate, 200 mM Tricine pH 8.5
# T2 sequence (P0C0G7 2-336): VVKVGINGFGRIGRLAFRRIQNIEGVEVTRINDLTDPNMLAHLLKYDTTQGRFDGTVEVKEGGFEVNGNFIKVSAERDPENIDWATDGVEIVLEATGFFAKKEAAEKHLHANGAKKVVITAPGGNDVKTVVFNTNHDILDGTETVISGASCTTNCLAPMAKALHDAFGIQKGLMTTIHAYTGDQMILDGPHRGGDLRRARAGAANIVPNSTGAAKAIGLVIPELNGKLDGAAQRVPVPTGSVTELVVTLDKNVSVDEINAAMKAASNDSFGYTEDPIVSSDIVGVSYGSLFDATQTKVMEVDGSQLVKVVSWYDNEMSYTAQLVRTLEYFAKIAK
molecule,measurement,setting,value
"Nc1cncnc1 [R65, Pyrimidine-5-amine]",inhibition at 40000 µM,SpyGapN,~42%
"O=S(=O)(O)C(O)C(O)S(=O)(=O)O (centres unmarked) [compound 26, 1,2-dihydroxyethane-1,2-disulfonate]",inhibition at 8000 µM,SpyGapN; read-out: % inhibition at 8 mM,~50%
O=CC(O)COP(=O)(O)O (racemic) [DL-glyceraldehyde 3-phosphate],NADH formation at 340 nm,SpyGapDH,"To measure the GapDH activity, the assay mixture contained"
"Oc1ccnnc1 [R76, 4-Hydroxypyridazine]",inhibition at 40000 µM,SpyGapN,~16%
(ethoxyoxydophosphanyl)formate [compound 32],% inhibition at 8 mM,"SpyGapN; 2 mM DL-G3P, 10 mM NADP+, 200 mM Tricine pH 8.5",~ 25%
